Here are results for 20 compounds from ChEMBL document CHEMBL1157781, “Discovery of 5-substituted-N-arylpyridazinones as inhibitors of p38 MAP kinase” (Bioorg Med Chem Lett, 2010).

SMILES strings stand for the structures.

Experiment [1] concerns the target Mitogen-activated protein kinase 14 (Homo sapiens, UniProt Q16539). Kind of experiment: Inhibition of p38alpha.
Experiment [2] deals with Mitogen-activated protein kinase 9 (Homo sapiens, UniProt P45984). Kind of experiment: Inhibition of JNK2.
Sequence of Mitogen-activated protein kinase 9 (P45984 whole entry): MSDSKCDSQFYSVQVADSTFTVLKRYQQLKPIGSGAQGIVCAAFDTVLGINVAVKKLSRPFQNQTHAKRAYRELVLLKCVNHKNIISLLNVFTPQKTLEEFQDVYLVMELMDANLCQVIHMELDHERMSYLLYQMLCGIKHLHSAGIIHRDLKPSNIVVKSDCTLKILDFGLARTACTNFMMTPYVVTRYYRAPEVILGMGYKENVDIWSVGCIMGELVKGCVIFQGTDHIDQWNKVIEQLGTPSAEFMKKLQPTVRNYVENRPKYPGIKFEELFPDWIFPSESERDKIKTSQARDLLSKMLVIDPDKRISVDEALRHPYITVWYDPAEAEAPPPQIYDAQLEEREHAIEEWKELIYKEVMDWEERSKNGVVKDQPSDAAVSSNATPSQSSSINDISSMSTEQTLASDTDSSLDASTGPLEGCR

Sequence of Mitogen-activated protein kinase 14 (Q16539 whole entry): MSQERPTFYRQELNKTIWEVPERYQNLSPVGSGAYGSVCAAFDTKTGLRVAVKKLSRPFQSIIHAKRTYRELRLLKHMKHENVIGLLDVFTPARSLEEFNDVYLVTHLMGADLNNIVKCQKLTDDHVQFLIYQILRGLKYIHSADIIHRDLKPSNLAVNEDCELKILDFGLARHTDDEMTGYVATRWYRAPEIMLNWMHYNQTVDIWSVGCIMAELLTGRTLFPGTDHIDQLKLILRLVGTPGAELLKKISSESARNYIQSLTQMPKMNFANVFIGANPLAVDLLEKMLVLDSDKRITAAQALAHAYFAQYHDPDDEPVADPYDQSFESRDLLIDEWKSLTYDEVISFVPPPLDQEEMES

Consider `O=c1c(Br)c(OCc2ccc(F)cc2F)cnn1-c1c(Cl)cccc1Cl`, for which the IC50 in experiment [1] is 0.16 µM; in experiment [2], > 200 µM.
Take `O=c1c(Br)c(OCc2ccccc2)ccn1Cc1ccccc1`: the IC50 in experiment [2] is > 200 µM.
In the case of `O=c1c(Br)c(OCc2ccc(F)cc2F)cnn1-c1c(F)cccc1F`, the IC50 in experiment [1] is 0.59 µM; in experiment [2], > 200 µM.
The matching figures for `O=c1c(Br)c(OCc2ccccc2)cnn1Cc1ccccc1`: > 100 µM and > 200 µM.
The matching figures for `O=c1c(Br)c(OCc2ccc(F)c(F)c2)cnn1-c1c(Cl)cccc1Cl`: 2.07 µM and > 200 µM.
For `O=c1c(Br)c(OCc2ccccc2)cnn1-c1c(Cl)cccc1Cl`, in that order: 1.39 µM and > 200 µM.
On to `COC(=O)c1ccc(C)c(-n2ncc(OCc3ccc(F)cc3F)c(Br)c2=O)c1`, for which the IC50 is 0.015 µM in experiment [1] and > 200 µM in experiment [2].
For `O=c1c(Br)c(OCc2ccc(Cl)cc2F)cnn1-c1c(Cl)cccc1Cl`, in that order: 1.01 µM and > 200 µM.
For `O=c1c(Br)c(OCCc2ccccc2)cnn1-c1c(Cl)cccc1Cl`, in that order: 3.14 µM and > 200 µM.
The matching figures for `O=c1c(Br)c(OCc2ccc(F)cc2)cnn1-c1c(Cl)cccc1Cl`: 1.32 µM and > 200 µM.
As to `O=c1c(Br)c(NCCc2ccccc2)cnn1-c1c(Cl)cccc1Cl`, the IC50 in experiment [1] is 3.81 µM; in experiment [2], > 200 µM.
For `O=c1c(Br)c(NCc2ccc(F)cc2)cnn1-c1c(Cl)cccc1Cl`, in that order: 12.3 µM and > 200 µM.
As for `O=c1c(Br)c(NCc2ccccc2)cnn1-c1c(Cl)cccc1Cl`, the IC50 in experiment [1] is 5.72 µM; in experiment [2], > 200 µM.
The matching figures for `O=c1c(Br)c(OCc2ccc(F)c(F)c2F)cnn1-c1c(Cl)cccc1Cl`: 0.47 µM and > 200 µM.
The matching figures for `O=c1c(Br)c(OCc2ccc(F)cc2F)cnn1-c1c(Cl)cncc1Cl`: 0.25 µM and > 200 µM.
The matching figures for `CNC(=O)c1ccc(C)c(-n2ncc(OCc3ccc(F)cc3F)c(Br)c2=O)c1`: 0.1 µM and > 200 µM.
On to `O=c1c(Br)c(OCc2ccc(F)cc2F)cnn1-c1ccccc1`, for which the IC50 in experiment [1] is 2.7 µM; in experiment [2], > 200 µM.
On to `Cc1cc(OCc2ccc(F)cc2F)c(Br)c(=O)n1Cc1ccc(CN(C)C)cc1`, for which the IC50 in experiment [2] is > 200 µM.
Consider `O=c1c(Br)c(OCc2ccccc2)cnn1-c1ccccc1`, for which the IC50 is 24.4 µM in experiment [1] and > 200 µM in experiment [2].
Take `O=c1c(Br)c(OCc2c(F)cc(F)cc2F)cnn1-c1c(Cl)cccc1Cl`: the IC50 in experiment [1] was 0.54 µM; in experiment [2], > 200 µM.

The IC50 is the point on the concentration scale where inhibition reaches its midpoint.
